≈ marks a conversion by molar mass, not a printed value. Calls of active or inactive are those of the source. No cut-off for these calls is given here.
Key:
Staphylococcus aureus [1] = experiment: Antibacterial activity against methicillin-resistant Staphylococcus aureus ATCC 33591 infected in female C57 mouse systemic infection model assessed as reduction in bacterial load in heart at 40 mg/kg, iv administered twice daily and measured after 7 days; assay type: functional; settings: time 7 day
[2] = test system: Staphylococcus epidermidis; experiment: Ratio of MBC to MIC against Staphylococcus epidermidis ATCC 51625; assay type: functional
Streptococcus pneumoniae [3] = experiment: Antibacterial activity against penicillin-resistant Streptococcus pneumoniae ATCC 51916 assessed as bacterial growth inhibition measured after 20 hrs by broth dilution method; assay type: functional
Staphylococcus aureus [4] = experiment: Antibacterial activity against methicillin resistant Staphylococcus aureus ATCC 33591 assessed as post antibiotic effect at 4 times MIC by time kill assay; assay type: functional
Enterococcus faecium [5] = experiment: Antibacterial activity against vancomycin-resistant Enterococcus faecium ATCC 51559 assessed as bacterial growth inhibition measured after 20 hrs by broth dilution method; assay type: functional
Staphylococcus aureus [6] = experiment: Antibacterial activity against methicillin-resistant Staphylococcus aureus ATCC 33591 infected in female C57 mouse systemic infection model assessed as reduction in bacterial load in lung at 40 mg/kg, iv administered twice daily and measured after 7 days; assay type: functional; settings: time 7 day
Staphylococcus aureus [7] = experiment: Drug resistance, ratio of MIC for Staphylococcus aureus ATCC 33591 after 9 days to MIC for methicillin-resistant Staphylococcus aureus ATCC 33591 after initial exposure; assay type: functional; settings: time 9 day
Streptococcus pneumoniae [8] = experiment: Antibacterial activity against penicillin-intermediate Streptococcus pneumoniae ATCC 49619 assessed as bacterial growth inhibition measured after 20 hrs by broth dilution method; assay type: functional
Staphylococcus aureus [9] = experiment: Antibacterial activity against methicillin-resistant Staphylococcus aureus ATCC 33591 infected in female C57 mouse systemic infection model assessed as effective dose; assay type: functional
Staphylococcus aureus [10] = experiment: Antibacterial activity against methicillin-resistant Staphylococcus aureus ATCC 33591 infected in female C57 mouse systemic infection model assessed as reduction in bacterial load in liver at 40 mg/kg, iv administered twice daily and measured after 7 days; assay type: functional; settings: time 7 day
Staphylococcus aureus [11] = experiment: Antibacterial activity against methicillin-resistant Staphylococcus aureus ATCC 33591 assessed as bacterial growth inhibition measured after 20 hrs by broth dilution method; assay type: functional
Staphylococcus aureus [12] = experiment: Drug resistance, ratio of MIC for Staphylococcus aureus ATCC 33591 after 8 days to MIC for methicillin-resistant Staphylococcus aureus ATCC 33591 after initial exposure; assay type: functional; settings: time 8 day
Enterococcus faecium [13] = experiment: Ratio of MBC to MIC against vancomycin-resistant Enterococcus faecium ATCC 700221; assay type: functional
Staphylococcus aureus [14] = experiment: Antibacterial activity against methicillin resistant Staphylococcus aureus ATCC 33591 assessed as post antibiotic effect at 2 times MIC by time kill assay; assay type: functional
Enterococcus faecium [15] = experiment: Antibacterial activity against vancomycin-resistant Enterococcus faecium clinical isolate 202308456 assessed as bacterial growth inhibition measured after 20 hrs by broth dilution method; assay type: functional
Enterococcus faecium [16] = experiment: Antibacterial activity against vancomycin-resistant Enterococcus faecium ATCC 700221 assessed as bacterial growth inhibition measured after 20 hrs by broth dilution method; assay type: functional
Staphylococcus aureus [17] = experiment: Antibacterial activity against methicillin-resistant Staphylococcus aureus clinical isolate 202311772 assessed as bacterial growth inhibition measured after 20 hrs by broth dilution method; assay type: functional
Staphylococcus aureus [18] = experiment: Induction of morphological changes in methicillin-resistant Staphylococcus aureus ATCC 33591 assessed as changes in cell surface at 1 time MIC measured after 4 hrs by SEM analysis; assay type: functional, organism-based
Staphylococcus aureus [19] = experiment: Antibacterial activity against methicillin-resistant Staphylococcus aureus clinical isolate 202405157 assessed as bacterial growth inhibition measured after 20 hrs by broth dilution method; assay type: functional
Staphylococcus aureus [20] = experiment: Antibacterial activity against methicillin-resistant Staphylococcus aureus ATCC 33591 infected in female C57 mouse systemic infection model assessed as reduction in bacterial load in kidney at 40 mg/kg, iv administered twice daily and measured after 7 days; assay type: functional; settings: time 7 day
[21] = test system: Staphylococcus epidermidis; experiment: Antibacterial activity against Staphylococcus epidermidis ATCC 51625 assessed as bacterial growth inhibition measured after 20 hrs by broth dilution method; assay type: functional
Staphylococcus aureus [22] = experiment: Ratio of MBC to MIC against Staphylococcus aureus ATCC 43300; assay type: functional
Enterococcus faecium [23] = experiment: Ratio of MBC to MIC against vancomycin-resistant Enterococcus faecium ATCC 51559; assay type: functional
Enterococcus faecium [24] = experiment: Ratio of MBC to MIC against vancomycin-resistant Enterococcus faecium clinical isolate 202308456; assay type: functional
Streptococcus pneumoniae [25] = experiment: Ratio of MBC to MIC against penicillin-intermediate Streptococcus pneumoniae ATCC 49619; assay type: functional
[26] = test system: Staphylococcus epidermidis; experiment: Antibacterial activity against methicillin-resistant Staphylococcus epidermidis clinical isolate 202409454 assessed as bacterial growth inhibition measured after 20 hrs by broth dilution method; assay type: functional
Staphylococcus aureus [27] = experiment: Ratio of MBC to MIC against methicillin-resistant Staphylococcus aureus ATCC 33591; assay type: functional
Staphylococcus aureus [28] = experiment: Antibacterial activity against methicillin-resistant Staphylococcus aureus clinical isolate 202313160 assessed as bacterial growth inhibition measured after 20 hrs by broth dilution method; assay type: functional
Staphylococcus aureus [29] = experiment: Antibacterial activity against methicillin-resistant Staphylococcus aureus ATCC 33591 infected in female C57 mouse systemic infection model assessed as reduction in bacterial load in spleen at 40 mg/kg, iv administered twice daily and measured after 7 days; assay type: functional; settings: time 7 day
Staphylococcus aureus [30] = experiment: Antibacterial activity against Staphylococcus aureus ATCC 25923 assessed as reduction in GFP expression at 1 to 4 times MIC measured after 1 hr by fluorescence microscopy based analysis; assay type: functional, organism-based
Staphylococcus aureus [31] = experiment: Bactericidal activity against methicillin-resistant Staphylococcus aureus ATCC 33591 at 4 to 8 times MIC measured within 24 hrs by time kill assay; assay type: functional, organism-based
Staphylococcus aureus [32] = experiment: Ratio of MBC to MIC against methicillin-resistant Staphylococcus aureus clinical isolate 202405157; assay type: functional
Staphylococcus aureus [33] = experiment: Antibacterial activity against methicillin-resistant Staphylococcus aureus ATCC 43300 assessed as bacterial growth inhibition measured after 20 hrs by broth dilution method; assay type: functional
[34] = test system: Staphylococcus epidermidis; experiment: Antibacterial activity against methicillin-resistant Staphylococcus epidermidis clinical isolate 202409139 assessed as bacterial growth inhibition measured after 20 hrs by broth dilution method; assay type: functional
Staphylococcus aureus [35] = experiment: Ratio of MBC to MIC against methicillin-resistant Staphylococcus aureus clinical isolate 202311772; assay type: functional

With C=C[C@]1(C)C[C@@H](OC(=O)CSCCN(CC)CC)[C@]2(C)[C@H](C)CC[C@]3(CCC(=O)[C@H]32)[C@@H](C)[C@@H]1O [TIAMULIN] the Activity (Staphylococcus aureus [1]) was 2.05 log10CFU/g, the Ratio [2] was >4 and the MIC (Streptococcus pneumoniae [3]) was 0.125 µg/mL (≈ 0.253 µM). For the same compound, the PAE (Staphylococcus aureus [4]) was 1.19 h, the MIC (Enterococcus faecium [5]) was 0.5 µg/mL (≈ 1.01 µM) and the Activity (Staphylococcus aureus [6]) was 1.23 log10CFU/g. The “fold change (FC)” value (Staphylococcus aureus [7]) was 64, the MIC (Streptococcus pneumoniae [8]) was 0.25 µg/mL (≈ 0.506 µM) and the ED50 (Staphylococcus aureus [9]) was 28.9 mg/kg. For the same compound, the Activity (Staphylococcus aureus [10]) was 0.28 log10CFU/g, the MIC (Staphylococcus aureus [11]) was 0.5 µg/mL (≈ 1.01 µM) and the “fold change (FC)” value (Staphylococcus aureus [12]) was 4. The Ratio (Enterococcus faecium [13]) was >4, the PAE (Staphylococcus aureus [14]) was 1.07 h and the MIC (Enterococcus faecium [15]) was 2 µg/mL (≈ 4.05 µM). The MIC (Enterococcus faecium [16]) was 0.125 µg/mL (≈ 0.253 µM), the MIC (Staphylococcus aureus [17]) was 2 µg/mL (≈ 4.05 µM) and the Activity (Staphylococcus aureus [18]) was “inactive”. The MIC (Staphylococcus aureus [19]) was 2 µg/mL (≈ 4.05 µM), the Activity (Staphylococcus aureus [20]) was 1.39 log10CFU/g and the MIC [21] was 0.125 µg/mL (≈ 0.253 µM). For the same compound, the Ratio (Staphylococcus aureus [22]) was >4, the Ratio (Enterococcus faecium [23]) was 2 and the Ratio (Enterococcus faecium [24]) was 4. The Ratio (Streptococcus pneumoniae [25]) was >4, the MIC [26] was 2 µg/mL (≈ 4.05 µM) and the Ratio (Staphylococcus aureus [27]) was 4. For the same compound, the MIC (Staphylococcus aureus [28]) was 1 µg/mL (≈ 2.03 µM), the Activity (Staphylococcus aureus [29]) was 0.7 log10CFU/g and the Activity (Staphylococcus aureus [30]) was “Active”. The Activity (Staphylococcus aureus [31]) was “Active”, the Ratio (Staphylococcus aureus [32]) was 4 and the MIC (Staphylococcus aureus [33]) was 0.5 µg/mL (≈ 1.01 µM). For the same compound, the MIC [34] was 1 µg/mL (≈ 2.03 µM) and the Ratio (Staphylococcus aureus [35]) was 4.

From ChEMBL document CHEMBL6078666, “Discovery of Novel Coumarin Pleuromutilin Derivatives as Potent Anti-MRSA Agents” (J Med Chem, 2024)
